# Test results: US10947237B2, “Antimicrobial compounds and methods of making and using the same” (BIOVERSYS AG, priority 2015, dated 2021)
# Experiments:
# [1] = test system: Eschericia coli (E. Coli) strain ATCC25922; test: standard microdilution assay, minimum inhibitory concentration (MIC); assay type: cell-based; conditions: Escherichia coli
# In short: (§1)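 Compounds were scored +/− against a 16 µg/mL MIC cutoff, using CLSI-based microdilution with QC reference strains. The organisms were S. aureus 11540 and E. coli ATCC25922.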
# [2] = test system: Staphylococcus aureus (S. aureus) 11540 strain; test: as above; assay type: cell-based
# In short: as §1
Structure (SMILES),"MIC ([1]; Table 2, strain ATCC25922)","MIC ([2]; Table 2, 11540 strain)","MIC ([1]; ATCC25922, Table 2a)",MIC ([2]; Table 2a)
CC(=N)NCC[C@H](CN)OCc1ccc(-n2cc3cc(-c4cc(CCC[C@H](C)N)cc(Cl)c4F)[nH]c3nc2=O)cc1 [Compound 176],,,≤ 16 µg/mL,≤ 16 µg/mL
CC(=N)NCC[C@H](CNC(C)=N)OCc1ccc(-n2cc3cc(-c4cc(CCC[C@H](C)N)cc(Cl)c4F)[nH]c3nc2=O)cc1 [Compound 169],,,≤ 16 µg/mL,≤ 16 µg/mL
CC1=NCC[C@@H]2CCC[C@@H](c3ccc(-n4cc5cc(CCNC6CCNCC6)[nH]c5nc4=O)cc3)N12 [Compound 118],> 16 µg/mL,> 16 µg/mL,,
C[C@H](N)CCCc1cc(Cl)c(F)c(-c2cc3cn(-c4ccc([C@@H]5CCC[C@@H](C[C@H](O)c6ccn[nH]6)N5)cc4)c(=O)nc3[nH]2)c1 [Compound 23],> 16 µg/mL,≤ 16 µg/mL,,
COC[C@H](N)CCCc1cc(OC(F)(F)F)c(F)c(-c2cc3cn(-c4ccc(CO[C@H](CCNC(=N)N)CNC(=N)N)cc4)c(=O)nc3[nH]2)c1 [Compound 165],,,≤ 16 µg/mL,≤ 16 µg/mL
C[C@H](N)CCCc1cc(Cl)c(F)c(-c2[nH]c3nc(=O)n(-c4ccc([C@H](C)NCCCNC(=N)N)cc4)cc3c2[N+](=O)[O-])c1[N+](=O)[O-] [Compound 111],> 16 µg/mL,≤ 16 µg/mL,,
C[C@@H](CCNC(=N)N)OCc1ccc(-n2cc3cc(C4CCNC4)[nH]c3nc2=O)cc1 (stereo partly shown) [Compound 131],> 16 µg/mL,> 16 µg/mL,,
N=C(N)NCC[C@@H]1C[C@H](Nc2nccs2)C[C@@H](c2ccc(-n3cc4cc(C5CCNC5)[nH]c4nc3=O)cc2)O1 (stereo partly shown) [Compound 124],> 16 µg/mL,> 16 µg/mL,,
CC(=N)NCC[C@@H]1C[C@H](CN)O[C@@H](c2ccc(-n3cc4cc(-c5cc(CCC[C@H](C)N)cc(Cl)c5F)[nH]c4nc3=O)cc2)C1 [Compound 97],≤ 16 µg/mL,≤ 16 µg/mL,,
C[C@H](N)CCCc1cc(Cl)c(F)c(-c2cc3cn(-c4ccc(CO[C@H](CCNS(C)(=O)=O)CNC(=N)N)cc4)c(=O)nc3[nH]2)c1 [Compound 167],,,≤ 16 µg/mL,≤ 16 µg/mL
C[C@H](N)CCCc1cc(Cl)c(F)c(-c2cc3cn(-c4ccc([C@H]5CCC[C@H](CCNC(=N)N)C5)cc4)c(=O)nc3[nH]2)c1 [Compound 35],≤ 16 µg/mL,≤ 16 µg/mL,,
CC(=N)NCC[C@@H]1CCC[C@@H](c2ccc(-n3cc4cc(C5CCNC5)[nH]c4nc3=O)cc2)N1 (stereo partly shown) [Compound 115],≤ 16 µg/mL,≤ 16 µg/mL,,
C[C@H](N)CCCc1cc(Cl)c(F)c(-c2cc3cn(-c4ccc([C@@H]5CCC[C@@H](CNCc6cn[nH]c6)N5)cc4)c(=O)nc3[nH]2)c1 [Compound 5],≤ 16 µg/mL,≤ 16 µg/mL,,
C=C[C@@H](CCNC(=N)N)NCc1ccc(-n2cc3cc(-c4cc([C@@H]5CC[C@@H](CN)O5)cc(Cl)c4F)[nH]c3nc2=O)cc1 [Compound 141],≤ 16 µg/mL,≤ 16 µg/mL,,
O=c1nc2[nH]c(CCNC3CCNCC3)cc2cn1-c1ccc([C@@H]2CCC[C@@H](CCc3ncc[nH]3)N2)cc1 [Compound 102],≤ 16 µg/mL,≤ 16 µg/mL,,
C=C[C@H]1C[C@@H](CCNC(=N)N)O[C@H](c2ccc(-n3cc4cc(C5CCN(C(=N)N)C5)[nH]c4nc3=O)cc2)C1 (stereo partly shown) [Compound 80],> 16 µg/mL,> 16 µg/mL,,
C[C@H](N)CCCc1cc(Cl)c(F)c(-c2cc3cn(-c4ccc(CO[C@@H](CCNC(=N)N)CNC(=N)N)cc4)c(=O)nc3[nH]2)c1 [Compound 174],,,≤ 16 µg/mL,≤ 16 µg/mL
N=C(N)NCC[C@H]1CN(c2ccc(-n3cc4cc(C5CCNC5)[nH]c4nc3=O)cc2)CCO1 (stereo partly shown) [Compound 145],> 16 µg/mL,> 16 µg/mL,,
C[C@H](N)CCCc1cc(Cl)c(F)c(-c2cc3cn(-c4ccc(CN[C@H](CCNC(=N)N)CNc5cc(=O)cc[nH]5)cc4)c(=O)nc3[nH]2)c1 [Compound 46],≤ 16 µg/mL,≤ 16 µg/mL,,
CC(=N)NCC[C@@H](CNC(=N)N)OCc1ccc(-n2cc3cc(-c4cc(CCC[C@H](C)N)cc(Cl)c4F)[nH]c3nc2=O)cc1 [Compound 172],,,≤ 16 µg/mL,≤ 16 µg/mL
C[C@H](N)CCCc1cc(Cl)c(F)c(-c2cc3cn(-c4ccc(CO[C@H](CCNC(=N)N)CN(C)C)cc4)c(=O)nc3[nH]2)c1 [Compound 159],,,≤ 16 µg/mL,≤ 16 µg/mL
C[C@H](N)CCCc1cc(Cl)c(F)c(-c2cc3cn(-c4ccc(CN[C@H](CCNC(=N)N)CNc5ncns5)cc4)c(=O)nc3[nH]2)c1 [Compound 38],≤ 16 µg/mL,≤ 16 µg/mL,,
CC(=O)CNCC[C@@H]1CCC[C@@H](c2ccc(-n3cc4cc(-c5cc(CCC[C@H](C)N)cc(Cl)c5F)[nH]c4nc3=O)cc2)N1 [Compound 9],≤ 16 µg/mL,≤ 16 µg/mL,,

# Continued, values first:
"MIC ([1]; Table 2, strain ATCC25922)","MIC ([2]; Table 2, 11540 strain)","MIC ([1]; ATCC25922, Table 2a)",MIC ([2]; Table 2a),Structure (SMILES)
≤ 16 µg/mL,≤ 16 µg/mL,,,N=C(N)NCC[C@@H]1CCC[C@@H](c2ccc(-n3cc4cc(CCNC5CCNCC5)[nH]c4nc3=O)cc2)N1 [Compound 101]
≤ 16 µg/mL,≤ 16 µg/mL,,,CC1=NC[C@@H](CCNC(=N)N)N1Cc1ccc(-n2cc3cc(-c4cc(CCC[C@H](C)N)cc(Cl)c4F)[nH]c3nc2=O)cc1 [Compound 77]
≤ 16 µg/mL,≤ 16 µg/mL,,,Cc1nc(NC[C@@H](CCNC(=N)N)NCc2ccc(-n3cc4cc(-c5cc(CCC[C@H](C)N)cc(Cl)c5F)[nH]c4nc3=O)cc2)sc1C [Compound 50]
≤ 16 µg/mL,≤ 16 µg/mL,,,C[C@H](N)CCCc1cc(Cl)c(F)c(-c2cc3cn(-c4ccc([C@@H]5CCC[C@@H](CCNc6nc7ccccc7[nH]6)N5)cc4)c(=O)nc3[nH]2)c1 [Compound 43]
≤ 16 µg/mL,≤ 16 µg/mL,,,C[C@H](N)CCCc1cc(Cl)c(F)c(-c2cc3cn(-c4ccc(CN[C@H](CCNC(=N)N)CNc5ccncc5)cc4)c(=O)nc3[nH]2)c1 [Compound 58]
≤ 16 µg/mL,≤ 16 µg/mL,,,Cc1ccncc1NC[C@@H](CCNC(=N)N)NCc1ccc(-n2cc3cc(-c4cc(CCC[C@H](C)N)cc(Cl)c4F)[nH]c3nc2=O)cc1 [Compound 65]
≤ 16 µg/mL,≤ 16 µg/mL,,,N=C(N)NCC[C@H](CNC(=N)N)OCc1ccc(-n2cc3cc(CCNC4CCNCC4)[nH]c3nc2=O)cc1 [Compound 114]
≤ 16 µg/mL,≤ 16 µg/mL,,,C[C@H](N)CCCc1cc(Cl)c(F)c(-c2cc3cn(-c4ccc([C@@H]5CCC[C@@H](CCn6ccoc6=O)N5)cc4)c(=O)nc3[nH]2)c1 [Compound 17]
≤ 16 µg/mL,≤ 16 µg/mL,,,C[C@H](N)CCCc1cc(Cl)c(F)c(-c2cc3cn(-c4ccc([C@H]5CC(N)C[C@H](CCNC6=NCCN6)O5)cc4)c(=O)nc3[nH]2)c1 (stereo partly shown) [Compound 143]
≤ 16 µg/mL,≤ 16 µg/mL,,,C[C@H](N)CCCc1cc(Cl)c(F)c(-c2cc3cn(-c4ccc(CN[C@H](CCNC(=N)N)CNc5nnn[nH]5)cc4)c(=O)nc3[nH]2)c1 [Compound 49]
≤ 16 µg/mL,≤ 16 µg/mL,,,C[C@H](N)CCCc1cc(Cl)c(F)c(-c2cc3cn(-c4ccc([C@H]5CC(CCNC(=N)N)CC(CO)O5)cc4)c(=O)nc3[nH]2)c1 (stereo partly shown) [Compound 87]
≤ 16 µg/mL,≤ 16 µg/mL,,,C[C@H](N)CCCc1cc(Cl)c(F)c(-c2cc3cn(-c4ccc(CO[C@H](CCNC(=N)N)CNc5ccccn5)cc4)c(=O)nc3[nH]2)c1 [Compound 75]
